The values below come from patent publication US20100291236A1, “OSMIUM COMPOUNDS” (THE UNIVERSITY OF WARWICK, priority 2006, published 2010).

Values joined by “and” are separate entries in the source; they are usually repeats but may differ in a detail not shown here. Equal values may be shown once. Read-outs that look alike come from different tables or passages of the source.

Series [1] in a line: Stability against formation of hydroxo-bridged dimers. It counts as physicochemical. Particulars: for Formation of inert hydroxo-bridged dimers: micromolar concentrations. The text has this:
Complexes containing O,O-chelated ligands are deactivated at micromolar concentrations by loss of the chelate and formation of inert hydroxo-bridged dimers.

The nature of series [2]: Acidity (pKa / pKa*) of coordinated water, 1H NMR pH* titration. The text has this: pKa* calculations. […] The chemical shifts of the arene ring protons were plotted against pH*. The pH* titration curves were fitted to the Henderson-Hasselbalch equation, with the assumption that the observed chemical shifts are weighted averages according to the populations of the protonated and deprotonated species.

The subject of series [3] is human lung A549 cancer cells. Put plainly: Cytotoxicity towards A549 cells, sulforhodamine B (SRB) assay. It counts as cell-based. The method, then:
(§1) Experimental: Cytotoxicity Towards A2780 and A549 Human Cancer Cells. After plating, human ovarian A2780 cancer cells were treated with Os^II complexes on day 3, and human lung A549 cancer cells on day 2, at concentrations ranging from 2 μM to 50 μM. Solutions of the Os^II complexes were made up in 0.125% DMSO to assist dissolution. Cells were exposed to the complexes for 24 h, washed, supplied with fresh medium, allowed to grow for three doubling times (72 h), and then the protein content measured (proportional to cell survival) using the sulforhodamine B (SRB) assay.
(§2) Cancer Cell Cytotoxicity. After plating, human ovarian A2780 cancer cells were treated with OsII complexes on day 3, and human lung A549 cancer cells on day 2, at concentrations ranging from 0.1 μM to 100 μM. Solutions of the OsII complexes were made up in 0.125% DMSO to assist dissolution. Cells were exposed to the complexes for 24 h, washed, supplied with fresh medium, allowed to grow for three doubling times (72 h), and then the protein content measured (proportional to cell survival) using the sulforhodamine B (SRB) assay.10
A general note: In SRB staining, fixed cells bind dye roughly in proportion to their protein.

Series [4] has as its system human ovarian A2780 cancer cells. Put plainly: Cytotoxicity towards A2780 cells, sulforhodamine B (SRB) assay. It counts as cell-based. As for the experimental part: as §1, §2
Series [5] is described as follows: Stability in isotonic saline solutions. It counts as physicochemical. Particulars: after 16 days of storage in the dark. As for the experimental part: Stability tests on AFAP42, 64, 62, 05, 51 and 65 in isotonic saline solutions were also performed.
In a further series the test system is 9-ethyl guanine (9EtG). Briefly: Reaction with nucleobase model 9-ethyl guanine, 1H NMR. Particulars: 1 mM complex, 1 mol equivalent 9EtG, D2O. It counts as binding. The method, then: (§3) Since DNA is believed to be the main target for metal anticancer drugs, nucleobase binding reactions of compounds 3-6, with nucleobase models, 9-ethyl guanine (9EtG) and 9-ethyl adenine (9EtA), were investigated.
(§4) Solutions of 3-6 (1 mM) (present as an equilibrium between 3-6 and their respective aqua adducts as the major species) with 1 mol equivalent of 9EtG (Table 14) or 9EtA (Table 15) in D2O were prepared and ^1H NMR spectra were taken at different time intervals.
(§5) Interactions with Nucleobases. The reaction of compounds 8-12 with nucleobases typically involved addition of a solution containing 1 mol equiv of nucleobase in D2O, to an equilibrium solution of compounds 8-12 in D2O (>90% aqua). The pH* value of the sample was adjusted if necessary so as to remain close to 7.4 (physiological). ^1H NMR spectra of these solutions were recorded at 298 K after various time intervals.

Series [6] in a line: Hydrolysis (aquation) kinetics followed by 1H NMR. The series is classed as physicochemical. Particulars: for Hydrolysis k/h^−1: 5% MeOD-d4/95% D2O, pH* 2. The method, then:
Hydrolysis. […] The rate of hydrolysis was determined by fitting plots of concentrations (determined by ^1H NMR peak integrals) versus time to a pseudo first-order equation using ORIGIN version 5.0 (Microcal Software Ltd.).

Series [7] in a line: Effect of chloride concentration on aqua adduct formation. It counts as physicochemical. Particulars: 1 mM complex in D2O, t = 10 min. From the text: The effects of chloride levels on the distribution of AFAP42 (“prodrug”) and its aqua analogue (“active species”) were investigated. […] Results are summarised in table 6, showing how the hydrolysis of AFAP42 is suppressed in solutions with chloride concentrations similar to those found in blood plasma. At chloride concentrations typical of the cells cytoplasm, complex AFAP42 hydrolyses to some extent and at chloride concentrations typical of the nucleus (where the proposed target, DNA, can be found), the complex is present predominantly as the “active species” the aqua complex.
The effects of chloride concentrations typical of blood plasma (100 mM), cell cytoplasm (22.7 mM) and cell nucleus (4 mM) on the aqueous chemistry of 3 and 6 were investigated. ^1H NMR spectra of 3 or 6 (1 mM) were recorded within 10 min of sample preparation and after incubation at 310 K for 24 h.

Experiment in series [8]: as above
It counts as physicochemical. Particulars: 1 mM complex in D2O, t = 26 h.

The next series concerns 9-ethyl adenine (9EtA). Put plainly: Reaction with nucleobase model 9-ethyl adenine, 1H NMR. It counts as binding. Particulars: 1 mM complex, 1 mol equivalent 9EtA, D2O. As for the experimental part:
as §3, §4, §5

The mark [9] stands for this setting: Table 7, 24 h exposure, 72 h growth, 2-50 μM, read-out: IC50/μM A549.
Setting [10] is: Table 7, 24 h exposure, 72 h growth, 2-50 μM, read-out: IC50/μM A2780.

Take `Cc1ccc(C(C)C)cc1.NCC(=O)[O][Os][Cl]` [AFAP43]: the “Formation of inert hydroxo-bridged dimers” value in [1] is on record as “form in small amounts”. Moreover, the “pKa of water coordinated on hydrolysis (aqua adduct of complex)” value (“pKa of water coordinated on hydrolysis” for short) in [2] was determined as 7.17. In addition, the IC50 in series [3] (setting [9]) and in series [4] (setting [10]) was greater than 100 µM each time.

With [(η^6-p-cym)Os(quin)Cl] [AFAP62], the “Stability with no evidence of dimer formation” value in series [1] (50 μM, even after incubation at 310 K (24 h)) came out at 100%. For the same compound, the “pKa of water coordinated on hydrolysis” value in series [2] is given as 7.52. Besides, the IC50 in series [3] (setting [9]) is 60 µM; in [4] (setting [10]) it was 15 µM and 15.2 µM. Further, the “Stability of isotonic saline solutions” value in series [5] is “stable”.

Consider `CC(C)(N)C(=O)[O][Os][Cl].Cc1ccc(C(C)C)cc1` [AFAP60], for which the “Formation of inert hydroxo-bridged dimers” value in [1] was “form in small amounts”. The “pKa of water coordinated on hydrolysis” value in series [2] came to 7.08. For the same compound, the IC50 in series [3] (setting [9]) and in series [4] (setting [10]) was greater than 100 µM in each case.

In the case of `Cc1ccnc(C(=O)[O][Os][Cl])c1.c1ccc(-c2ccccc2)cc1` [Compound 6, [(η^6-bip)Os(4-Me-pico)Cl]], the “% 9EtG nucleobase adduct” value in the series with 9-ethyl guanine (9EtG) (t = 10) is reported as 0%; in the series on 9-ethyl guanine (9EtG) (t = 24 h), 80%; in the series on 9-ethyl guanine (9EtG) (t = 72 h), 85%. In addition, the “pKa* of the aqua adduct” value in series [2] turned out to be 6.42. The IC50 in series [3] (Table 8, compounds 1-6, read-out: A549 IC50) was 10 to 50 µM; in series [4] (Table 8, compounds 1-6, read-out: A2780 IC50) it was 4.4 µM. The “Aquation k/h^−1” value in [6] (278 K) is 0.17 h⁻¹; in [6] (285 K), 0.44 h⁻¹. Moreover, the “Hydrolysis k/h^−1” value was 0.710 ± 0.012 h⁻¹ and 0.71 h⁻¹ in series [6] (288 K); 2.32 ± 0.08 h⁻¹ and 2.32 h⁻¹ in [6] (298 K). This compound also yielded an Ea of aquation in series [6] (from rates at 278-298 K) of 21.65 kcal/mol. Also, in series [6] (from rates at 278-298 K), the “ΔH^‡ of aquation” value turned out to be 21 kcal/mol. Besides, in [6] (from rates at 278-298 K), the “ΔS^‡ of aquation” value is on record as −55.56 J K^−1 mol^−1. Moreover, the “% aqua adduct” value in series [7] (4 mM NaCl) is given as 82%; in [7] (22.7 mM NaCl) it was 53%; in series [7] (100 mM NaCl), 10%; in [8] (4 mM NaCl), 81%; in [8] (22.7 mM NaCl), 53%; in [8] (100 mM NaCl), 20%. In series [4], the “Activity in A2780 cancer cell line” value is “toxic”. The “% 9EtA nucleobase adduct” value in the series on 9-ethyl adenine (9EtA) (t = 10) came to 0%; in the series on 9-ethyl adenine (9EtA) (t = 24 h) it was 60%; in the series with 9-ethyl adenine (9EtA) (t = 72 h), 60%.

As to `Cc1ccc(C(C)C)cc1.NCCC(=O)[O][Os][Cl]` [AFAP49], the “Formation of inert hydroxo-bridged dimers” value in series [1] is listed as “form in small amounts”. In addition, in series [2], the “pKa of water coordinated on hydrolysis” value turned out to be 7.43. Moreover, the IC50 in series [3] (setting [9]) and in [4] (setting [10]) was greater than 100 µM throughout.

As to `CC(N)C(=O)[O][Os][Cl].Cc1ccc(C(C)C)cc1` [AFAP44], in series [1], the “Formation of inert hydroxo-bridged dimers” value is listed as “form in small amounts”. Besides, the “pKa of water coordinated on hydrolysis” value in series [2] was determined as 7.05. Also, the IC50 in series [3] (setting [9]) and in series [4] (setting [10]) was greater than 100 µM in each case.
